According to the kinase profiling compilation of Christmann-Franck et al. (2016):

Tests used:
Experiment in all cases: radiometric filter-binding kinase assay
[1] = molecular target: SRC (chicken); details: ATP 50 µM, accession and sequence are those of the human protein
[2] = system: AKT1 (human), P31749 [S473D]; details: compound 10.0 µM; ATP 5 µM
[3] = molecular target: PKN2 (human) (UniProt Q16513); details: compound 10.0 µM; ATP 5 µM
[4] = molecular target: MAPK9 (human) (UniProt P45984); details: compound 25.0 µM; ATP 20 µM
MAPK9 (human), sequence (P45984 whole entry, looked up): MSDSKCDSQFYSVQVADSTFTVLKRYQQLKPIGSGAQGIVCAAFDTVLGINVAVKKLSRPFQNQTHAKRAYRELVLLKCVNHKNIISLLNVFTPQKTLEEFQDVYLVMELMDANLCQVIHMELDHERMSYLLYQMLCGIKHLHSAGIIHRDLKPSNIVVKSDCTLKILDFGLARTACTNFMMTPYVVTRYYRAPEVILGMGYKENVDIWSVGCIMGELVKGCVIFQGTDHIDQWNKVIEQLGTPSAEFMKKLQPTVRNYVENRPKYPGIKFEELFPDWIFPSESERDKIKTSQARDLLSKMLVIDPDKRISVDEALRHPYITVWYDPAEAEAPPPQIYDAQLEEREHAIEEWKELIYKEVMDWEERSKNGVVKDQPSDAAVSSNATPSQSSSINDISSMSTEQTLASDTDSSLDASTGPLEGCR

[5] = molecular target: CSNK1D (human) (UniProt P48730); details: compound 1.0 µM; ATP 20 µM
CSNK1D (human), sequence (P48730 whole entry, looked up): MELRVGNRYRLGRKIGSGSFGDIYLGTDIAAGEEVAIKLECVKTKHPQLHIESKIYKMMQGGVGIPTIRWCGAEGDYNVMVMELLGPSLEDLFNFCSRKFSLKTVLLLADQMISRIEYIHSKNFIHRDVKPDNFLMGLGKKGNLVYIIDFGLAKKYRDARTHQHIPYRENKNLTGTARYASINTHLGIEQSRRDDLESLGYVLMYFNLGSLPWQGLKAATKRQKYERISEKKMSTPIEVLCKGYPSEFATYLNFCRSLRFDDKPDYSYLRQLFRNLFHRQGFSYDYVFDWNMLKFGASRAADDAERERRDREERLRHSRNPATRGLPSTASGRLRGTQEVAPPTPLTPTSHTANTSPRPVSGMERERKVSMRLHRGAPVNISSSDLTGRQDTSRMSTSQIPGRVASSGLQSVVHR

[6] = molecular target: MAPK14 (human) (UniProt Q16539); details: compound 10.0 µM; ATP 50 µM
MAPK14 (human), sequence (Q16539 whole entry, looked up): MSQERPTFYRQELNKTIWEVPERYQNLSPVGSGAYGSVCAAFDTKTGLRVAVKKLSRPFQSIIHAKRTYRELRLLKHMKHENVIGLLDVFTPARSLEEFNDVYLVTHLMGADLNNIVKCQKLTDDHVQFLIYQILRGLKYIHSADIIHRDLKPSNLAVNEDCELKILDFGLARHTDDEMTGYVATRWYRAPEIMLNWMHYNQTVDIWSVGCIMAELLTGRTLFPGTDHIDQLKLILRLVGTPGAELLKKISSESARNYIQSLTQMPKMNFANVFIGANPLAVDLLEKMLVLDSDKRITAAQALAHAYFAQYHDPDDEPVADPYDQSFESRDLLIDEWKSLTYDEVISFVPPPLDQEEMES

[7] = molecular target: PAK7 (human) (UniProt Q9P286); details: compound 1.0 µM; ATP 20 µM
PAK7 (human), sequence (Q9P286 whole entry, looked up): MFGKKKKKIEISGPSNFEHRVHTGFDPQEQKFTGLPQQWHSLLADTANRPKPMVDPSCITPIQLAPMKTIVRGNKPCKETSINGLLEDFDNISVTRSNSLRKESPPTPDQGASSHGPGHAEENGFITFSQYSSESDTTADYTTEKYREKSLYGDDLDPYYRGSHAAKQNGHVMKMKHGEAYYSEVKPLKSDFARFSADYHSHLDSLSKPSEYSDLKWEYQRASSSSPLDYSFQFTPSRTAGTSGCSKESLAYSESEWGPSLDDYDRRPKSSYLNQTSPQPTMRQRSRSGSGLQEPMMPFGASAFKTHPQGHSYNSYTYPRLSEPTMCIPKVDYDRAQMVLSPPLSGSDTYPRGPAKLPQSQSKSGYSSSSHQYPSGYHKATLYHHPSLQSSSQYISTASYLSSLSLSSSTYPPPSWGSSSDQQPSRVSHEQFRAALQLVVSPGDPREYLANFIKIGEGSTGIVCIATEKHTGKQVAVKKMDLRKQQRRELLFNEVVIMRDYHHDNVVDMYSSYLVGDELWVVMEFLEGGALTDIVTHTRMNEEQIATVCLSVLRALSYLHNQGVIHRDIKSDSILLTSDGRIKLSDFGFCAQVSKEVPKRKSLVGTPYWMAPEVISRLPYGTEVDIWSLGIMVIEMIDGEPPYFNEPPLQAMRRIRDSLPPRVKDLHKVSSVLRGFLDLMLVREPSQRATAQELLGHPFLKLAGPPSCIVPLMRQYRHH

[8] = molecular target: PRKCG (human) (UniProt P05129); details: compound 1.0 µM; ATP 5 µM
[9] = molecular target: PHKG1 or PHKG2 (human) (UniProt P15735+Q16816); details: compound 1.0 µM; ATP 50 µM
[10] = molecular target: PDPK1 (human) (UniProt O15530); details: compound 1.0 µM
PDPK1 (human), sequence (O15530 whole entry, looked up): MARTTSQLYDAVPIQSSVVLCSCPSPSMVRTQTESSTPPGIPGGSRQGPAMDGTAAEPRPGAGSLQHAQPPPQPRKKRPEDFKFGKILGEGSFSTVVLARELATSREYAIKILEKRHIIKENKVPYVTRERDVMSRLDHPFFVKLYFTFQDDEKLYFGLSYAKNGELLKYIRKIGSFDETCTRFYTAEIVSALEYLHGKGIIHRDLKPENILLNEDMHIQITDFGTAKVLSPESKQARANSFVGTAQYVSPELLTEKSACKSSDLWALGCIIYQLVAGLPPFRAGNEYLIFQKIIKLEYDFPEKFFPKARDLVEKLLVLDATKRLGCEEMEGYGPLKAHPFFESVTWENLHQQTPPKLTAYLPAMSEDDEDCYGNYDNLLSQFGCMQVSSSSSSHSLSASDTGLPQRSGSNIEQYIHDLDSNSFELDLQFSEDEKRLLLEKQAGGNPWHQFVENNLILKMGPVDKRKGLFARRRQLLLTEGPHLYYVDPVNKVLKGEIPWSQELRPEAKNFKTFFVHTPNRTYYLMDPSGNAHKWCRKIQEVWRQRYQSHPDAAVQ

[11] = molecular target: CSNK2A1 or CSNK2A2 (human) (UniProt P19784+P68400); details: compound 1.0 µM; ATP 5 µM
[12] = molecular target: MAPK11 (human) (UniProt Q15759); details: compound 1.0 µM; ATP 20 µM
MAPK11 (human), sequence (Q15759 whole entry, looked up): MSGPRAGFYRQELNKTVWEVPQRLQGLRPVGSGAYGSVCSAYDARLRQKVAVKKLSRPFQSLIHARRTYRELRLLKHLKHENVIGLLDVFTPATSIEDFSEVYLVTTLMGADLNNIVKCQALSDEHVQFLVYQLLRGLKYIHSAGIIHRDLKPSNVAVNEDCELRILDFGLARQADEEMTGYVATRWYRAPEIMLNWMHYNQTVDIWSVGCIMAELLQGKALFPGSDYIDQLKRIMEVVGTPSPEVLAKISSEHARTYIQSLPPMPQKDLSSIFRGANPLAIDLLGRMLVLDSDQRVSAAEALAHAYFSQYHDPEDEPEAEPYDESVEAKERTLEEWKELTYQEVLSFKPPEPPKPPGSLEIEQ

PKN2 (human), sequence (Q16513 whole entry, looked up): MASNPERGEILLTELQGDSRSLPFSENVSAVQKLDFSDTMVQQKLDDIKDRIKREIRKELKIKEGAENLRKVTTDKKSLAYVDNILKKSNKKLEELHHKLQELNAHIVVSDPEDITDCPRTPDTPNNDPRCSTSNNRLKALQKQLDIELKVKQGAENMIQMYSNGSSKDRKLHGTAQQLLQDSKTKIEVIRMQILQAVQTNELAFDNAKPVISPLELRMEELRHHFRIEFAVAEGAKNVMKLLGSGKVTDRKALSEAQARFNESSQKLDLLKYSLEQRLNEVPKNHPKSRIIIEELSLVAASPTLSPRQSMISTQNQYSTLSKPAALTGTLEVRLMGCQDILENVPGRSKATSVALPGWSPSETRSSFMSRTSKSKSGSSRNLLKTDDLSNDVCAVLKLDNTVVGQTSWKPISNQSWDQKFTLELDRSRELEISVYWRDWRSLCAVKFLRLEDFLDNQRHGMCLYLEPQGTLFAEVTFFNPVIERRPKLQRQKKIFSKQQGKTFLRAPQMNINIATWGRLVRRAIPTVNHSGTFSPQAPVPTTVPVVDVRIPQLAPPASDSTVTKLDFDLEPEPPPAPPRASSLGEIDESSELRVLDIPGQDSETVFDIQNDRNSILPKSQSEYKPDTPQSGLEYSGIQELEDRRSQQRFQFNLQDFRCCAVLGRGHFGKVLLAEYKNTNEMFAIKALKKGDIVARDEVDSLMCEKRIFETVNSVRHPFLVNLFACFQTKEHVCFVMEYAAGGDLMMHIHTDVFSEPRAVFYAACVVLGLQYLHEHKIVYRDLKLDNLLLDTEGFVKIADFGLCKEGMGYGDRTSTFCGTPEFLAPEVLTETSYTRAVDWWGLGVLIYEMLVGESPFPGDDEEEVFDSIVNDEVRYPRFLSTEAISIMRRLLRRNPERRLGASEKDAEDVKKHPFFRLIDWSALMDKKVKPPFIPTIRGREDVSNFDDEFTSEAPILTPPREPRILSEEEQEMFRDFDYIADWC
AKT1 (human), P31749 [S473D], sequence (P31749 whole entry S473D, looked up): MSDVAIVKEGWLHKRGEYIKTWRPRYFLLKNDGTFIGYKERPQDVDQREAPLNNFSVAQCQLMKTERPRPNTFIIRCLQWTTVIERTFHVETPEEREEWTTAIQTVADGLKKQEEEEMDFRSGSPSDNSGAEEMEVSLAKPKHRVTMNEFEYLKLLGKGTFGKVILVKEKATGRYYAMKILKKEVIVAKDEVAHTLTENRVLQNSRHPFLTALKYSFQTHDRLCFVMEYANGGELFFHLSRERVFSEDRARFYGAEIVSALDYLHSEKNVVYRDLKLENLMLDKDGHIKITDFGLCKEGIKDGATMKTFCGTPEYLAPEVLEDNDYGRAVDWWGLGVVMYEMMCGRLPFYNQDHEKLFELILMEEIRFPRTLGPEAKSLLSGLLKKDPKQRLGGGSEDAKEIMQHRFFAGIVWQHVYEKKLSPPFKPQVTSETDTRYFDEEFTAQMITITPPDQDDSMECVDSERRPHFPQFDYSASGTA

## CN(C)S(=O)(=O)c1ccc2c(c1)/C(=C/c1cc3c([nH]1)CCCC3)C(=O)N2
[1]
  IC50: 100 nM

## NC(=O)c1ccc(-c2nc(-c3ccccn3)c(-c3ccc4c(c3)OCCO4)[nH]2)cc1
[2]
  residual activity: 107%
[3]
  residual activity: 107%

## COc1cc(OC)c(/C=C2\C(=O)Nc3ccccc32)c(OC)c1
[4]
  residual activity: 101%

## COc1ccc2c(c1)[nH]c1c(C)nccc12
[5]
  residual activity: 60%

## CC(C)(C)n1nc(-c2cccc3ccccc23)c2c(N)ncnc21
[1]; compound 1.0 µM
  residual activity: 20%

## Cc1ccc(NC(=O)c2cccc(N(C)C)c2)cc1NC(=O)c1ccc(O)cc1
[6]
  residual activity: 8%

## CC[C@@H](CO)Nc1nc(NCc2ccccc2)c2ncn(C(C)C)c2n1
[7]
  residual activity: 74%
[8]
  residual activity: 82%
[9]
  residual activity: 93%
[10]; ATP 20 µM
  residual activity: 80%
[10]; ATP 50 µM
  residual activity: 90%
[11]
  residual activity: 92%
[12]
  residual activity: 94%
